According to patent publication US20210009541A1, “FUNGICIDAL OXADIAZOLES” (Bayer Aktiengesellschaft, priority 2018, published 2021):
Marks after values point to notes of the source that are not given here.

Test system: Colletotrichum lindemuthianum
Test: Example E: Colletotrichum lindemuthianum in vitro cell test
Type: cell-based
Details: 144 h, 20 ppm of active ingredient, liquid culture, 6 days incubation, read-out: efficacy (inhibition of fungal growth)
Procedure: Example E: Colletotrichum lindemuthianum In Vitro Cell Test
• Solvent: DMSO Culture medium: 14.6 g anhydrous D-glucose (VWR), 7.1 g Mycological Peptone (Oxoid), 1.4 g granulated Yeast Extract (Merck), QSP 1 liter • Inoculum: spores suspension
Active ingredients were solubilized in DMSO and the solution used to prepare the required range of concentrations. The final concentration of DMSO used in the assay was 1%.
A spore suspension of C. lindemuthianum was prepared and diluted to the desired spore density.
The active ingredients were evaluated for their ability to inhibit spores germination and mycelium growth in liquid culture assay. The compounds were added in the desired concentration to the culture medium with spores. After 6 days incubation, fungi-toxicity of compounds was determined by spectrometric measurement of mycelium growth. Inhibition of fungal growth was determined by comparing the absorbance values in wells containing the active ingredient with the absorbance in control wells without active ingredient.

SMILES	inhibition at 20 ppm
FC(F)(F)c1nc(-c2ccc3[nH]ncc3c2)no1 [Compound I-005, 5-[5-(Trifluoromethyl)-1,2,4-oxadiazol-3-yl]-1H-indazole]	90 to 100%
COCCn1ncc2cc(-c3noc(C(F)(F)F)n3)ccc21 [Compound I-013, 1-(2-Methoxyethyl)-5-[5-(trifluoromethyl)-1,2,4-oxadiazol-3-yl]-1H-indazole]	80 to 89%
COCCn1cc2cc(-c3noc(C(F)(F)F)n3)ccc2n1 [Compound I-014, 2-(2-Methoxyethyl)-5-[5-(trifluoromethyl)-1,2,4-oxadiazol-3-yl]-2H-indazole]	80 to 89%

Test system: not listed separately
Test: LogP by HPLC on reversed phase columns (EEC directive 79/831 Annex V.A8)
Type: physicochemical
Details: not given
Procedure: [table] If more than one Log P value is available within the same method, all the values are given and separated by “+”. […] Lambda-max-values were determined using UV-spectra from 200 nm to 400 nm and the peak values of the chromatographic signals.

SMILES	LogP
CON(C(=O)C1CC1)C1CCCc2cc(-c3noc(C(F)(F)F)n3)ccc21 (centres unmarked) [Compound I-019]	4.44^[a]
COCCOC(=O)N(OC)C1CCCc2cc(-c3noc(C(F)(F)F)n3)ccc21 (centres unmarked) [Compound I-025]	4.27^[a]
CCC(=O)N1CCc2ccc(-c3noc(C(F)(F)Cl)n3)cc2C1 [Compound I-033]	3.31^[a]
COCCn1cc2ccc(-c3noc(C(F)(F)F)n3)cc2n1 [Compound I-017]	3.00^[a]
Fc1cc2nn(Cc3ccccc3)cc2cc1-c1noc(C(F)(F)Cl)n1 [Compound I-066]	4.11^[a]
CCn1c(C)nc2cc(-c3noc(C(F)(F)F)n3)ccc21 [Compound I-045]	1.60^[a]
COC(=O)N1CCc2cc(-c3noc(C(F)(F)F)n3)ccc2C1 [Compound I-048]	3.63^[a]
COC(=O)N1CCCc2cc(-c3noc(C(F)(F)Cl)n3)ccc21 [Compound I-027]	4.27^[a]
CCn1cc2cc(-c3noc(C(F)(F)F)n3)ccc2n1 [Compound I-010]	3.15^[a]
COC(=O)N1CCCc2cc(-c3noc(C(F)(F)F)n3)ccc21 [Compound I-028]	4.03^[a]
CCC(=O)N1CCCc2cc(-c3noc(C(F)(F)Cl)n3)ccc21 [Compound I-029]	3.90^[a]
CC(=O)N1CCc2cc(-c3noc(C(F)(F)F)n3)ccc2C1 [Compound I-049]	2.71^[a]
COC(=O)N1CCc2ccc(-c3noc(C(F)(F)F)n3)cc2C1 [Compound I-032]	3.59^[a]
FC(F)(F)c1nc(-c2ccc3nc[nH]c3c2)no1 [Compound I-002]	1.46^[a]
FC(F)(F)c1nc(-c2ccc3cn[nH]c3c2)no1 [Compound I-006]	2.70^[a]
Cn1cnc2cc(-c3noc(C(F)(F)F)n3)ccc21 [Compound I-003]	1.70^[a]

SMILES	LogP
Cn1cnc2ccc(-c3noc(C(F)(F)F)n3)cc21 [Compound I-004]	1.67^[a]
CN(C)C(=O)Oc1ccc2cc(-c3noc(C(F)(F)F)n3)ccc2c1 [Compound I-034]	4.18^[a]
CCC(=O)N1CCc2ccc(-c3noc(C(F)(F)F)n3)cc2C1 [Compound I-031]	3.11^[a]
COCCn1ncc2ccc(-c3noc(C(F)(F)F)n3)cc21 [Compound I-016]	3.35^[a]
CCC(=O)N1CCCc2cc(-c3noc(C(F)(F)F)n3)ccc21 [Compound I-030]	3.68^[a]
CCn1ncc2cc(-c3noc(C(F)(F)F)n3)ccc21 [Compound I-011]	3.67^[a]
COCCC(=O)N(OC)C1CCCc2cc(-c3noc(C(F)(F)F)n3)ccc21 (centres unmarked) [Compound I-021]	3.96^[a]
FC(F)(Cl)c1nc(-c2ccc3nc[nH]c3c2)no1 [Compound I-041]	1.57^[a]
CON(C(=O)c1ccccc1)C1CCCc2cc(-c3noc(C(F)(F)F)n3)ccc21 (centres unmarked) [Compound I-022]	4.72^[a]
CC(C)(C)OC(=O)N1CCc2cc(-c3noc(C(F)(F)F)n3)ccc2C1 [Compound I-038]	4.93^[a]
CCn1cc2ccc(-c3noc(C(F)(F)F)n3)cc2n1 [Compound I-015]	3.21^[a]
FC(F)(F)c1nc(-c2ccc3ncc(Br)n3c2)no1 [Compound I-036]	2.75^[a]
O=C(O)c1cn2cc(-c3noc(C(F)(F)F)n3)ccc2n1 [Compound I-040]	1.41^[a]
Nc1ccc2cc(-c3noc(C(F)(F)F)n3)ccc2c1 [Compound I-042]	3.47^[a]
COC(=O)N(OC)C1CCCc2cc(-c3noc(C(F)(F)F)n3)ccc21 (centres unmarked) [Compound I-024]	4.34^[a]

Continued, values first:

LogP	SMILES
2.18^[a]	COCCNC(=O)c1cn2cc(-c3noc(C(F)(F)F)n3)ccc2n1 [Compound I-037]
2.31^[a]	Nc1cc2cc(-c3noc(C(F)(F)F)n3)ccc2cn1 [Compound I-055]
2.90^[a]	CC(=O)Nc1cc2cc(-c3noc(C(F)(F)F)n3)ccc2cn1 [Compound I-054]
2.61^[a]	Fc1cc2[nH]ncc2cc1-c1noc(C(F)(F)F)n1 [Compound I-061]
2.78^[a]	Fc1cc2[nH]ncc2cc1-c1noc(C(F)(F)Cl)n1 [Compound I-062]
1.86^[a]	Cn1cnc2cc(-c3noc(C(F)(F)Cl)n3)ccc21 [Compound I-060]
3.62^[a]	ON=C1CCCc2cc(-c3noc(C(F)(F)F)n3)ccc21 [Compound I-001]
2.78^[a]	FC(F)(F)c1nc(-c2cc(Cl)c3nn[nH]c3c2)no1 [Compound I-044]
3.23^[a]	FC(F)(Cl)c1nc(-c2ccc3ncn(Cc4ccccc4)c3c2)no1 [Compound I-058]
3.21^[a]	FC(F)(F)c1nc(-c2ccc3ncsc3c2)no1 [Compound I-043]
3.31^[a]	O=C(C1CC1)N1CCc2cc(-c3noc(C(F)(F)F)n3)ccc2C1 [Compound I-047]
4.39^[a]	FC(F)(F)c1nc(-c2ccc3c(cnn3Cc3ccccc3)c2)no1 [Compound I-009]
3.92^[a]	Fc1cc2nn(Cc3ccccc3)cc2cc1-c1noc(C(F)(F)F)n1 [Compound I-065]
2.59^[a]	CCOC(=O)c1cn2cc(-c3noc(C(F)(F)F)n3)ccc2n1 [Compound I-039]
3.68^[a]	FC(F)(Cl)c1nc(-c2ccc3cc[nH]c3c2)no1 [Compound I-046]
3.06^[a]	FC(F)(F)c1nc(-c2ccc3ncn(Cc4ccccc4)c3c2)no1 [Compound I-059]
2.32^[a]	CC(=O)Nc1ccc(-c2noc(C(F)(F)F)n2)c2c1CCO2 [Compound I-053]
3.83^[a]	O=C(Cc1ccccc1)N1CCc2cc(-c3noc(C(F)(F)F)n3)ccc2C1 [Compound I-050]
2.84^[a]	FC(F)(Cl)c1nc(-c2ccc3[nH]ncc3c2)no1 [Compound I-063]
4.34^[a]	FC(F)(F)c1nc(-c2ccc3cnn(Cc4ccccc4)c3c2)no1 [Compound I-007]
3.41^[a]	O=C(c1cnc2ccc(-c3noc(C(F)(F)F)n3)cn12)C(F)(F)F [Compound I-035]
3.33^[a]	CCC(=O)Nc1cc2cc(-c3noc(C(F)(F)F)n3)ccc2cn1 [Compound I-052]
4.28^[a]	Fc1cc2c(cnn2Cc2ccccc2)cc1-c1noc(C(F)(F)F)n1 [Compound I-064]
3.45^[a]	COC(=O)Nc1cc2cc(-c3noc(C(F)(F)F)n3)ccc2cn1 [Compound I-051]
3.83^[a]	COC(=O)N1CCc2ccc(-c3noc(C(F)(F)Cl)n3)cc2C1 [Compound I-026]
4.03^[a]	FC(F)(F)c1nc(-c2ccc3nn(Cc4ccccc4)cc3c2)no1 [Compound I-012]
4.03^[a]	FC(F)(F)c1nc(-c2ccc3cn(Cc4ccccc4)nc3c2)no1 [Compound I-008]
3.28^[a]	CC(=O)Nc1ccc(-c2noc(C(F)(F)F)n2)c2c1CCC2 [Compound I-056]

Same assay, conditions: method [a]: LC-UV, acidic range, 0.1% formic acid in water and acetonitrile as eluent

SMILES	LogP
O=C(Nc1ccc2cc(-c3noc(C(F)(F)F)n3)ccc2c1)C(F)(F)F [Compound I-057]	4.27^[a]

Same assay, conditions: reversed phase HPLC column; method [a]: LC-UV, acidic range, 0.1% formic acid in water and acetonitrile as eluent

chromatographic logP	SMILES
2.68	FC(F)(F)c1nc(-c2ccc3[nH]ncc3c2)no1 [Compound I-005, 5-[5-(Trifluoromethyl)-1,2,4-oxadiazol-3-yl]-1H-indazole]
6.04	CCN(OC)C1CCCc2cc(-c3noc(C(F)(F)F)n3)ccc21 (centres unmarked) [Compound I-023, N-Ethyl-O-methyl-N-{6-[5-(trifluoromethyl)-1,2,4-oxadiazol-3-yl]-1,2,3,4-tetrahydronaphthalen-1-yl}hydroxylamine]
4.08	CONC1CCCc2cc(-c3noc(C(F)(F)F)n3)ccc21 (centres unmarked) [Compound I-018, O-Methyl-N-{6-[5-(trifluoromethyl)-1,2,4-oxadiazol-3-yl]-1,2,3,4-tetrahydronaphthalen-1-yl}hydroxylamine]
3.31	COCCn1ncc2cc(-c3noc(C(F)(F)F)n3)ccc21 [Compound I-013, 1-(2-Methoxyethyl)-5-[5-(trifluoromethyl)-1,2,4-oxadiazol-3-yl]-1H-indazole]
2.96	COCCn1cc2cc(-c3noc(C(F)(F)F)n3)ccc2n1 [Compound I-014, 2-(2-Methoxyethyl)-5-[5-(trifluoromethyl)-1,2,4-oxadiazol-3-yl]-2H-indazole]

Test system: Phakosporra pachirrhizi
Test: Example D: fungicidal activity against Phakosporra pachirrhizi (spore germination, 96-well imaging)
Type: cell-based
Details: 30 ppm of active ingredient; wild-type spores, 4 hours at 21° C.; read-out: efficacy (inhibition of the fungal germination)
Procedure: Example D: Fungicidal Activity Against Phakosporra pachirrhizi
Cryo-conserved wild-type spores of the biotroph Phakosporra pachirrhizi are humidified in dedicated chamber overnight at 18° C. in the dark. The next day, a solution of spores at 7×10^3 sp/ml is prepared in a water based growth medium (DH2O+0.2 mM MOPS at pH 7+0.01% Tween 20) and spores are distributed in a 96-MTPS (final volume of 200 μL per well) thanks to a dispenser robot. Each molecule is tested at 10 doses (from 30 to 0.002 ppm final concentration) and accordingly 1.2 μL of each dilution is transferred in dedicated well to end-up with a final concentration of 0.6% DMSO. Wild-type spores and molecules are incubated for 4 hours at 21° C., and 6 images par well are then acquired with Transmitted Light images (Image Xpress Micro microscope, Molecular Devices, Objective 10λ, 6 images per well). Detection and quantification of the number of germinated spores per image is performed with a dedicated in-house developed algorithm (MetaXpress software, Molecular Devices).

SMILES	inhibition at 30 ppm
FC(F)(F)c1nc(-c2ccc3[nH]ncc3c2)no1 [Compound I-005, 5-[5-(Trifluoromethyl)-1,2,4-oxadiazol-3-yl]-1H-indazole]	90 to 100%
COCCn1ncc2cc(-c3noc(C(F)(F)F)n3)ccc21 [Compound I-013, 1-(2-Methoxyethyl)-5-[5-(trifluoromethyl)-1,2,4-oxadiazol-3-yl]-1H-indazole]	80 to 89%
COCCn1cc2cc(-c3noc(C(F)(F)F)n3)ccc2n1 [Compound I-014, 2-(2-Methoxyethyl)-5-[5-(trifluoromethyl)-1,2,4-oxadiazol-3-yl]-2H-indazole]	70 to 79%
